Test results reported in publication PMC10682951, “Structure-function and rational design of a spider toxin Ssp1a at human voltage-gated sodium channel subtypes” (Frontiers in Pharmacology, 2023).
Bridge positions count the residues as written; N and C are the ends. Peptide text beside a SMILES is read from it.

Columns and labels:
Format in all cases: cell-based
hNaV1.7 = molecular target: T1, hNaV1.7 (Homo sapiens, UniProt Q15858); experiment: Automated whole-cell patch-clamp (QPatch 16X), hNaV1.7; details: for IC50: HEK293 cells expressing hNaV1.7 + β1 subunit, QPatch 16X, holding −80 mV, step to 0 mV, peptide incubated 2 min, 0.1% BSA, mean, SEM and n (3-9)
T1 construct: host or cells: HEK293
T1 sequence (Q15858 whole entry): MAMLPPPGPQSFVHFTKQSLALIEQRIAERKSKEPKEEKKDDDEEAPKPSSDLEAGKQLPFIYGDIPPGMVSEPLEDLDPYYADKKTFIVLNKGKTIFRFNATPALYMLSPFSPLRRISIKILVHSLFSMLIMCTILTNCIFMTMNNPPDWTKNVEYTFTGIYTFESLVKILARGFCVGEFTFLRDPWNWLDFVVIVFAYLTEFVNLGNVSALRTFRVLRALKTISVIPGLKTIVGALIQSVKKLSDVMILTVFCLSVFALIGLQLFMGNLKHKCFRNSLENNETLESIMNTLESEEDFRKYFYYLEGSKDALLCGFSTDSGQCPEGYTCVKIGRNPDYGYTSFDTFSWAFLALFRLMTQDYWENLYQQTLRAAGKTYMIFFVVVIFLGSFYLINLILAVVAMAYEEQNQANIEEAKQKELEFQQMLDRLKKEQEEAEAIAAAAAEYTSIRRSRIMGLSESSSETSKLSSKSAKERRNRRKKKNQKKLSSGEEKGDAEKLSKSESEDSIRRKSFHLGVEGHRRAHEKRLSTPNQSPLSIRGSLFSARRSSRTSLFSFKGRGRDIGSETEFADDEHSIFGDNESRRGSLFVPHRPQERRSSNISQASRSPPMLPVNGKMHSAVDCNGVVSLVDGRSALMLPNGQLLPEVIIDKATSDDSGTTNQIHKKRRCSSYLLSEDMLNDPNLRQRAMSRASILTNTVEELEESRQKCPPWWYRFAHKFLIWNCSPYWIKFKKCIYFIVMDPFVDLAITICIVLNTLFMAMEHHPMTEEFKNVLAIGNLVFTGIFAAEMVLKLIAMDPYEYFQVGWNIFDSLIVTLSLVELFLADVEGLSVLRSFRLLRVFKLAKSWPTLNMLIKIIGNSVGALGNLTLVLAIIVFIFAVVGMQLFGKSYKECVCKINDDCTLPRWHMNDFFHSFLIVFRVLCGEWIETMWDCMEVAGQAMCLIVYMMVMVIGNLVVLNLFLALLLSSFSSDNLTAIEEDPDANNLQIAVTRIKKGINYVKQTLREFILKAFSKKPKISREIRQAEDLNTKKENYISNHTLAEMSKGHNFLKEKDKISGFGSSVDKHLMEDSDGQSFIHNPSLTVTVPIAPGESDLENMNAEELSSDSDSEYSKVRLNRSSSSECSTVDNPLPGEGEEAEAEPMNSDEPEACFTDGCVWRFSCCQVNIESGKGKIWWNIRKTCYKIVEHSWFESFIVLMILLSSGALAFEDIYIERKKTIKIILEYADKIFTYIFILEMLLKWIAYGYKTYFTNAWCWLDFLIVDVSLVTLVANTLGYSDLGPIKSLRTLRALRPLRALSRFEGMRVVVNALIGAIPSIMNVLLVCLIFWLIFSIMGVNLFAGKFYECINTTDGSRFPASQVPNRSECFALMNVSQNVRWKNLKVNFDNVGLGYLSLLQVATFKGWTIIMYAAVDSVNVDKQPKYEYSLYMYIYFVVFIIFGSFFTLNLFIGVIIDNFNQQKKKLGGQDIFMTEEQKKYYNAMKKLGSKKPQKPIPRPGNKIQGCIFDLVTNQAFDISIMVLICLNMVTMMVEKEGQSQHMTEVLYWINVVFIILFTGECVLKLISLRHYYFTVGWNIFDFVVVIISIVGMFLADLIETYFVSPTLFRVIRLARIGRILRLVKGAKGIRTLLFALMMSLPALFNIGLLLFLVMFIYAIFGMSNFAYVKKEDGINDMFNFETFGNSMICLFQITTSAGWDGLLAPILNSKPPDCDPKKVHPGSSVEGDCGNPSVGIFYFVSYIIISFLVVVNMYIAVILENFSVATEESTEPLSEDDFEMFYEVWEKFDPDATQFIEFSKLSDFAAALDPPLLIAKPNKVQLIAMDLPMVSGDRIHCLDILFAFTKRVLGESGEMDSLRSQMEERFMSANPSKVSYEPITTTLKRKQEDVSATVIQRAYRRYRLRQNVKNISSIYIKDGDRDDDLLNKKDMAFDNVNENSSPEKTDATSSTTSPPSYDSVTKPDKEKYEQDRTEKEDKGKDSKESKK
T1 sequence (Q07699 19-218, further chain): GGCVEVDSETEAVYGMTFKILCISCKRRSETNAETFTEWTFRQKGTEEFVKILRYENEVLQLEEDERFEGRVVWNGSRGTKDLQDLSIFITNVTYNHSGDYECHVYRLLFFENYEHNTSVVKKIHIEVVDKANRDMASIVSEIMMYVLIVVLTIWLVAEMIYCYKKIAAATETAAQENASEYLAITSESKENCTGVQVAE
Description: (§1) Human embryonic kidney 293 (HEK293) cells stably expressing recombinant hNaV1.2, hNaV1.3 and hNaV1.7 and the β1 auxiliary subunit (Scottish Biomedical Drug Discovery, Glasgow, UK) were cultured in Minimal Essential medium (MEM) (Sigma-Aldrich, MO, United States) supplemented with 10% v/v FBS-New Zealand origin (Assay Matrix), 2 mM L-glutamine and selection antibiotics as per manufacturer’s recommendation. The HEK293 cells heterologously expressing mNaV1.7 and F813G-mNaV1.7 were generously provided by Prof Irina Vetter and were cultured in Minimal Essential medium (MEM) (Sigma-Aldrich, MO, United States) supplemented with 10% v/v FBS-New Zealand origin (Assay Matrix), 2 mM L-glutamine and hygromycin 100 μg/mL.
(§2) NaV channel currents from HEK293 cells stably expressing NaV subtypes and the β1 auxiliary subunit were recorded using an automated whole-cell patch clamp system QPatch 16X (Sophion Bioscience A/S, Ballerup, Denmark). As per the manufacturer’s guidelines, the cells were cultured for 48 h to achieve ∼80% confluency, detached using Detachin (Genlantis) and resuspended to 5 × 10^6 cells/mL in serum free media [CHO-cell SFM (Life Technologies), 25 mM HEPES and 100 U/mL penicillin/streptomycin]. The extracellular solution comprised (in mM) 1 CaCl2, 1 MgCl2, 5 HEPES, 3 KCl, 140 NaCl and 20 TEA-Cl, with the pH adjusted to 7.3 with NaOH. The intracellular solution comprised (in mM) 140 CsF, 1 EGTA, 5 CsOH, 10 HEPES and 10 NaCl, with the pH adjusted to 7.3 with CsOH. The osmolarity of both solutions were adjusted to 320 mOsm with sucrose. Compounds were prepared in extracellular solution containing 0.1% bovine serum albumin (Sigma-Aldrich). To obtain the dose-response curves, cells were maintained at a holding potential −80 mV and Na^+ currents were elicited by […] voltage steps to 0 mV from a −120 mV conditioning pulse applied for […]. Increasing concentrations of the peptide were incubated with the cells at the holding potential for 2 min before the voltage protocol was applied.
(§3) The experimental data were analysed using QPatch Assay software v5.6.4 and GraphPad Prism 7.0 using a four-parameter Hill equation [Y = Bottom + (Top—Bottom)/(1 + 10^(Log IC50—X)* Hillslope)] to fit concentration response curves by non-linear regression analysis and Student’s t-test. Data are presented as means ± standard error of mean (SEM) with number of independent experiments stated and p < 0.05 is considered statistically significant. Statistically insignificant shift in the activity is denoted by “little” while small but statistically significant shift in the activity is denoted by “slight” throughout the manuscript.

hNaV1.2 = molecular target: T2, hNaV1.2 (Homo sapiens, UniProt Q99250); experiment: Automated whole-cell patch-clamp (QPatch 16X), hNaV1.2; details: for IC50: HEK293 cells expressing hNaV1.2 + β1 subunit, QPatch 16X, holding −80 mV, step to 0 mV, peptide incubated 2 min, 0.1% BSA, mean, SEM and n (2-7)
T2 construct: host or cells: HEK293
Description: as §1, §2, §3

hNaV1.3 = molecular target: T3, hNaV1.3 (Homo sapiens, UniProt Q9NY46); experiment: Automated whole-cell patch-clamp (QPatch 16X), hNaV1.3; details: for IC50: HEK293 cells expressing hNaV1.3 + β1 subunit, QPatch 16X, holding −80 mV, step to 0 mV, peptide incubated 2 min, 0.1% BSA, mean, SEM and n (3-12)
T3 construct: host or cells: HEK293
T3 sequence (Q9NY46 whole entry): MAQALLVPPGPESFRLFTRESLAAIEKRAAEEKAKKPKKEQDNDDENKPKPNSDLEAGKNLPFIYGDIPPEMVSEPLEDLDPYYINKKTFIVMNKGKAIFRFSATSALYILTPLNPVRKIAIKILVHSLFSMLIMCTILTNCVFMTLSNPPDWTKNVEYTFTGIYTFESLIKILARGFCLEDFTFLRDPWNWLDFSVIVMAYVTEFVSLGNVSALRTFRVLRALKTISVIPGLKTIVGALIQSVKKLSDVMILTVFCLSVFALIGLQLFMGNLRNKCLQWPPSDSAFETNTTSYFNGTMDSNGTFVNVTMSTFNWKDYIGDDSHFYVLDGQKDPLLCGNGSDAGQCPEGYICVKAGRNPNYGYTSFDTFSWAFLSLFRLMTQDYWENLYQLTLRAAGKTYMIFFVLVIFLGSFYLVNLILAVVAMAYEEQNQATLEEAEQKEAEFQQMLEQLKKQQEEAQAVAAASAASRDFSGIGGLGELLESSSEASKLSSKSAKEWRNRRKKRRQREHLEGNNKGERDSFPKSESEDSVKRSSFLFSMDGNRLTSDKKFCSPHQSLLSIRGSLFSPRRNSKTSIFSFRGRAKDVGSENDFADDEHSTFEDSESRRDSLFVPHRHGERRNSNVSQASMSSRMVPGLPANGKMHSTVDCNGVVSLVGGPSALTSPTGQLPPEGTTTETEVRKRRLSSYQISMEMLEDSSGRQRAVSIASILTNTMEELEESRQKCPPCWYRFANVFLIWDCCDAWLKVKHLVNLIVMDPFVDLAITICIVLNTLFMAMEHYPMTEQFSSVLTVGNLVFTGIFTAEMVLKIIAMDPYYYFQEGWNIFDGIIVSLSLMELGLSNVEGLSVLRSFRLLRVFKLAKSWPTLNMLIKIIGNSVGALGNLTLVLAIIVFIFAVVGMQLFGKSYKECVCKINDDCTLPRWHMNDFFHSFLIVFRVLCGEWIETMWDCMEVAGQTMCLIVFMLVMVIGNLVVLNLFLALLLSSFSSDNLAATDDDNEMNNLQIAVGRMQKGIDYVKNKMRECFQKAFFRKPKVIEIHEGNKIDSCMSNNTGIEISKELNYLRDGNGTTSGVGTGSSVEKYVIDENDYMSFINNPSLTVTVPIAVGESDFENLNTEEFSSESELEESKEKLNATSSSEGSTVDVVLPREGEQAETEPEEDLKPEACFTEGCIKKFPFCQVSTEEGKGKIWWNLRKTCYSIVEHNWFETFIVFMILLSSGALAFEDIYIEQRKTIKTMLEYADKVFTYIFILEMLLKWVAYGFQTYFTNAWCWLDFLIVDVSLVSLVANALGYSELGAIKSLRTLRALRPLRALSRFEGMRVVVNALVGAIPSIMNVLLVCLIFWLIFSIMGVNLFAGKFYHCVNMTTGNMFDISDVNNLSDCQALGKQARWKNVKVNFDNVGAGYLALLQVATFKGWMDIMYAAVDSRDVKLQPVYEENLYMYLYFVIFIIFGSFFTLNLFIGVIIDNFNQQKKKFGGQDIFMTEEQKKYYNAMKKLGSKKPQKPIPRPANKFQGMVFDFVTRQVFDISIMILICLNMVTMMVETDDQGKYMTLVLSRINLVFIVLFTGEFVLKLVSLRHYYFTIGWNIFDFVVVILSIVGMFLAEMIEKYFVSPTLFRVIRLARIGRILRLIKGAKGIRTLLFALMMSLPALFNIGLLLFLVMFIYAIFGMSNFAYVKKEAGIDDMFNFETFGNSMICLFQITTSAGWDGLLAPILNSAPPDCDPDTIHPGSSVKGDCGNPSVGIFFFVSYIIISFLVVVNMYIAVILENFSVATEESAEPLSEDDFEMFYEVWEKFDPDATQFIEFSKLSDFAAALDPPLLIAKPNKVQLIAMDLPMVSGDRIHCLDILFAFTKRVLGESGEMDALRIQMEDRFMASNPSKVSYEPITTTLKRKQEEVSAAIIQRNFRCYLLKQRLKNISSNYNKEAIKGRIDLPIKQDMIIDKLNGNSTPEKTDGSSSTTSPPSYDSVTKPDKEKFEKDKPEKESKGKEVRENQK
T3 sequence (Q07699 19-218, further chain): as the sequence (Q07699 19-218, further chain) above
Description: as §1, §2, §3

`CC(C)C[C@H](NC(=O)[C@H](CC(=O)O)NC(=O)[C@H](Cc1c[nH]c2ccccc12)NC(=O)[C@H](CCCNC(=N)N)NC(=O)[C@@H]1CSSC[C@@H]2NC(=O)[C@H](CCCCN)NC(=O)[C@H](CC(N)=O)NC(=O)[C@H](CC(N)=O)NC(=O)[C@H](CC(N)=O)NC(=O)[C@@H]3CCCN3C(=O)[C@H](CC(=O)O)NC(=O)[C@@H]3CSSC[C@H](NC(=O)[C@H](C(C)C)NC(=O)[C@H](Cc4ccc(O)cc4)NC(=O)CNC(=O)[C@H](CCC(=O)O)NC(=O)[C@H](CSSC[C@H](NC(=O)[C@H](CC(=O)O)NC(=O)CN)C(=O)N[C@@H](CC(C)C)C(=O)NCC(=O)N[C@@H](Cc4c[nH]c5ccccc45)C(=O)N[C@@H](Cc4ccccc4)C(=O)N[C@@H](CO)C(=O)NCC(=O)N3)NC2=O)C(=O)N[C@@H](Cc2c[nH]cn2)C(=O)N[C@@H](Cc2c[nH]c3ccccc23)C(=O)N[C@@H](CCCCN)C(=O)N[C@@H](Cc2ccc(O)cc2)C(=O)N2CCC[C@H]2C(=O)N[C@@H](Cc2c[nH]c3ccccc23)C(=O)N1)C(=O)O` [Y31W] was tested, and the IC50 (hNaV1.7) was 80 nM, the IC50 (hNaV1.2) was 89 nM and the IC50 (hNaV1.3) was 160 nM.
With `CC(C)C[C@H](NC(=O)[C@H](CC(=O)O)NC(=O)[C@H](Cc1ccc(O)cc1)NC(=O)[C@H](CCCNC(=N)N)NC(=O)[C@@H]1CSSC[C@@H]2NC(=O)[C@H](CCCCN)NC(=O)[C@H](CC(N)=O)NC(=O)[C@H](CC(N)=O)NC(=O)[C@H](CC(N)=O)NC(=O)[C@@H]3CCCN3C(=O)[C@H](CC(=O)O)NC(=O)[C@@H]3CSSC[C@H](NC(=O)[C@H](C(C)C)NC(=O)[C@H](Cc4ccc(O)cc4)NC(=O)CNC(=O)[C@H](CCC(=O)O)NC(=O)[C@H](CSSC[C@H](NC(=O)[C@H](CC(=O)O)NC(=O)CN)C(=O)N[C@@H](CC(C)C)C(=O)NCC(=O)N[C@@H](Cc4c[nH]c5ccccc45)C(=O)N[C@@H](Cc4ccccc4)C(=O)N[C@@H](CO)C(=O)NCC(=O)N3)NC2=O)C(=O)N[C@@H](Cc2c[nH]cn2)C(=O)N[C@@H](Cc2c[nH]c3ccccc23)C(=O)N[C@@H](C)C(=O)N[C@@H](Cc2ccc(O)cc2)C(=O)N2CCC[C@H]2C(=O)N[C@@H](Cc2c[nH]c3ccccc23)C(=O)N1)C(=O)O` [K25A] (H-GDCLGWFSGCDPNNNKCCEGYVCHWAYPWCRYDL-OH; disulfide 3-18, 10-23, 17-30 (inferred); N-terminus and C-terminus assumed) the IC50 (hNaV1.7) was > 1000 nM, the “Loss (reduction) in potency vs rSsp1a at hNaV1.7” value (hNaV1.7; relative to wild type rSsp1a) was ≥ 10 fold and the IC50 (hNaV1.2) was > 1000 nM. The “Loss (reduction) in potency vs rSsp1a at hNaV1.2” value (hNaV1.2; relative to wild type rSsp1a) was ≥ 10 fold and the IC50 (hNaV1.3) was > 1000 nM.
For `CC(C)C[C@H](NC(=O)[C@H](CC(=O)O)NC(=O)[C@H](Cc1ccc(O)cc1)NC(=O)[C@H](CCCNC(=N)N)NC(=O)[C@@H]1CSSC[C@@H]2NC(=O)[C@H](CCCCN)NC(=O)[C@H](CC(N)=O)NC(=O)[C@H](CC(N)=O)NC(=O)[C@H](CC(N)=O)NC(=O)[C@@H]3CCCN3C(=O)[C@H](CC(=O)O)NC(=O)[C@@H]3CSSC[C@H](NC(=O)[C@H](C(C)C)NC(=O)[C@H](Cc4ccc(O)cc4)NC(=O)CNC(=O)[C@H](CCC(=O)O)NC(=O)[C@H](CSSC[C@H](NC(=O)[C@H](CC(=O)O)NC(=O)CN)C(=O)N[C@@H](CC(C)C)C(=O)NCC(=O)N[C@@H](Cc4c[nH]c5ccccc45)C(=O)N[C@@H](Cc4ccccc4)C(=O)N[C@@H](CO)C(=O)NCC(=O)N3)NC2=O)C(=O)N[C@@H](Cc2c[nH]cn2)C(=O)N[C@@H](CCCNC(=N)N)C(=O)N[C@@H](CCCCN)C(=O)N[C@@H](Cc2ccc(O)cc2)C(=O)N2CCC[C@H]2C(=O)N[C@@H](Cc2c[nH]c3ccccc23)C(=O)N1)C(=O)O` [W24R], the inhibition at 3 µM (hNaV1.7; 3 µM peptide, QPatch) was ~50%, the IC50 (hNaV1.7) was > 3000 nM and the inhibition at 3 µM (hNaV1.2; 3 µM peptide, QPatch, partial inhibition) was ~65%. The IC50 (hNaV1.2) was 423 nM, the inhibition at 3 µM (hNaV1.3; 3 µM peptide, QPatch, read-out: Inhibition (block) of hNaV1.3 at 3 µM) was ~75% and the IC50 (hNaV1.3) was 1190 nM.
`CC(C)C[C@H](NC(=O)[C@H](CC(=O)O)NC(=O)[C@H](Cc1ccc(O)cc1)NC(=O)[C@H](CCCNC(=N)N)NC(=O)[C@@H]1CSSC[C@@H]2NC(=O)[C@H](CCCCN)NC(=O)[C@H](CC(=O)O)NC(=O)[C@H](CC(N)=O)NC(=O)[C@H](CC(N)=O)NC(=O)[C@@H]3CCCN3C(=O)[C@H](CC(=O)O)NC(=O)[C@@H]3CSSC[C@H](NC(=O)[C@H](C(C)C)NC(=O)[C@H](Cc4ccc(O)cc4)NC(=O)CNC(=O)[C@H](CCC(=O)O)NC(=O)[C@H](CSSC[C@H](NC(=O)[C@H](CC(=O)O)NC(=O)CN)C(=O)N[C@@H](CC(C)C)C(=O)NCC(=O)N[C@@H](Cc4ccccc4)C(=O)N[C@@H](Cc4ccccc4)C(=O)N[C@@H](CO)C(=O)NCC(=O)N3)NC2=O)C(=O)N[C@@H](Cc2c[nH]cn2)C(=O)N[C@@H](Cc2c[nH]c3ccccc23)C(=O)N[C@@H](CCCCN)C(=O)N[C@@H](Cc2ccc(O)cc2)C(=O)N2CCC[C@H]2C(=O)N[C@@H](Cc2c[nH]c3ccccc23)C(=O)N1)C(=O)O` [W5F/N14D] (H-GDCLGFFSGCDPNNDKCCEGYVCHWKYPWCRYDL-OH; disulfide 3-18, 10-23, 17-30) showed an IC50 (hNaV1.7) of 391 nM, an IC50 (hNaV1.2) of 735 nM and an IC50 (hNaV1.3) of 1200 nM.
For `CC(C)C[C@H](NC(=O)[C@H](CC(=O)O)NC(=O)[C@H](Cc1ccc(O)cc1)NC(=O)[C@H](CCCNC(=N)N)NC(=O)[C@@H]1CSSC[C@@H]2NC(=O)[C@H](CCCCN)NC(=O)[C@H](CC(N)=O)NC(=O)[C@H](CC(N)=O)NC(=O)[C@H](CC(N)=O)NC(=O)[C@@H]3CCCN3C(=O)[C@H](CC(=O)O)NC(=O)[C@@H]3CSSC[C@H](NC(=O)[C@H](C(C)C)NC(=O)[C@H](Cc4ccc(O)cc4)NC(=O)CNC(=O)[C@H](CCC(=O)O)NC(=O)[C@H](CSSC[C@H](NC(=O)[C@H](CC(=O)O)NC(=O)CN)C(=O)N[C@@H](CC(C)C)C(=O)NCC(=O)N[C@@H](Cc4c[nH]c5ccccc45)C(=O)N[C@@H](Cc4ccccc4)C(=O)N[C@@H](CCCCN)C(=O)NCC(=O)N3)NC2=O)C(=O)N[C@@H](Cc2c[nH]cn2)C(=O)N[C@@H](Cc2c[nH]c3ccccc23)C(=O)N[C@@H](CCCCN)C(=O)N[C@@H](Cc2ccc(O)cc2)C(=O)N2CCC[C@H]2C(=O)N[C@@H](Cc2ccccc2)C(=O)N1)C(=O)O` [S7K/W28F] (H-GDCLGWFKGCDPNNNKCCEGYVCHWKYPFCRYDL-OH; disulfide 3-18, 10-23, 17-30), the IC50 (hNaV1.7) was 1470 nM, the IC50 (hNaV1.2) was > 3000 nM and the IC50 (hNaV1.3) was > 3000 nM.
Work on `CC(C)C[C@H](NC(=O)[C@H](CC(=O)O)NC(=O)[C@H](Cc1ccc(O)cc1)NC(=O)[C@H](CCCNC(=N)N)NC(=O)[C@@H]1CSSC[C@@H]2NC(=O)[C@H](CCCCN)NC(=O)[C@H](CC(N)=O)NC(=O)[C@H](CC(N)=O)NC(=O)[C@H](CC(N)=O)NC(=O)[C@@H]3CCCN3C(=O)[C@H](CC(=O)O)NC(=O)[C@@H]3CSSC[C@H](NC(=O)[C@H](C(C)C)NC(=O)[C@H](Cc4ccc(O)cc4)NC(=O)CNC(=O)[C@H](CCCCN)NC(=O)[C@H](CSSC[C@H](NC(=O)[C@H](CC(=O)O)NC(=O)CN)C(=O)N[C@@H](CC(C)C)C(=O)NCC(=O)N[C@@H](Cc4c[nH]c5ccccc45)C(=O)N[C@@H](Cc4ccccc4)C(=O)N[C@@H](CCCNC(=N)N)C(=O)NCC(=O)N3)NC2=O)C(=O)N[C@@H](Cc2c[nH]cn2)C(=O)N[C@@H](Cc2c[nH]c3ccccc23)C(=O)N[C@@H](CCCCN)C(=O)N[C@@H](Cc2ccc(O)cc2)C(=O)N2CCC[C@H]2C(=O)N[C@@H](Cc2c[nH]c3ccccc23)C(=O)N1)C(=O)O` [E18K/S7R] (H-GDCLGWFRGCDPNNNKCCKGYVCHWKYPWCRYDL-OH; disulfide 3-18, 10-23, 17-30) yielded an IC50 (hNaV1.7) of 40 nM, an IC50 (hNaV1.2) of 40 nM and an IC50 (hNaV1.3) of 59 nM.
